We go through 27 molecules from patent US20150307520A1, “NOVEL HETEROARYL AND HETEROCYCLE COMPOUNDS, COMPOSITIONS AND METHODS THEREOF” (HUTCHISON MEDIPHARMA LIMITED, priority 2012, published 2015).

Each structure is given as a SMILES string.

What all share (type): biochemical
The target of one assay is p110β/p85α (Homo sapiens, UniProt P42338). As to the kind of experiment: Transcreener KINASE Assay, kinase inhibition of p110β/p85α. To be noted: for PI3Kβ IH % @ 1 uM: 1 uM test compound; for IC50: read-out: PI3Kβ IC50. In short, it runs like this: (§1)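 ADP formation read by far-red competitive FP immunoassay (60 min RT detection step) after an 80 min RT kinase reaction; substrate added as a 30 uM PIP2/10 uM ATP solution (not final).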

For the next assay, the target named is p110γ (Homo sapiens, UniProt P48736). As to the kind of experiment: Transcreener KINASE Assay, kinase inhibition of p110γ. To be noted: for PI3Kγ IH % @ 1 uM: 1 uM test compound; for IC50: read-out: PI3Kγ IC50. The essentials: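 Kinase activity is monitored as ADP formation, detected by competitive fluorescence polarization with a far-red tracer. Recombinant isoform complexes react for 80 min at room temperature before a 60 min detection step. IC50 values come from fitted dose-response data.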

In a further assay the target is p110δ/p85α (Homo sapiens, UniProt O00329). As to the kind of experiment: Transcreener KINASE Assay, kinase inhibition of p110δ/p85α. To be noted: for PI3Kδ IH % @ 1 uM: 1 uM test compound; for IC50: read-out: PI3Kδ IC50. In short, it runs like this: as §1
Chain of p110δ/p85α (O00329 whole entry): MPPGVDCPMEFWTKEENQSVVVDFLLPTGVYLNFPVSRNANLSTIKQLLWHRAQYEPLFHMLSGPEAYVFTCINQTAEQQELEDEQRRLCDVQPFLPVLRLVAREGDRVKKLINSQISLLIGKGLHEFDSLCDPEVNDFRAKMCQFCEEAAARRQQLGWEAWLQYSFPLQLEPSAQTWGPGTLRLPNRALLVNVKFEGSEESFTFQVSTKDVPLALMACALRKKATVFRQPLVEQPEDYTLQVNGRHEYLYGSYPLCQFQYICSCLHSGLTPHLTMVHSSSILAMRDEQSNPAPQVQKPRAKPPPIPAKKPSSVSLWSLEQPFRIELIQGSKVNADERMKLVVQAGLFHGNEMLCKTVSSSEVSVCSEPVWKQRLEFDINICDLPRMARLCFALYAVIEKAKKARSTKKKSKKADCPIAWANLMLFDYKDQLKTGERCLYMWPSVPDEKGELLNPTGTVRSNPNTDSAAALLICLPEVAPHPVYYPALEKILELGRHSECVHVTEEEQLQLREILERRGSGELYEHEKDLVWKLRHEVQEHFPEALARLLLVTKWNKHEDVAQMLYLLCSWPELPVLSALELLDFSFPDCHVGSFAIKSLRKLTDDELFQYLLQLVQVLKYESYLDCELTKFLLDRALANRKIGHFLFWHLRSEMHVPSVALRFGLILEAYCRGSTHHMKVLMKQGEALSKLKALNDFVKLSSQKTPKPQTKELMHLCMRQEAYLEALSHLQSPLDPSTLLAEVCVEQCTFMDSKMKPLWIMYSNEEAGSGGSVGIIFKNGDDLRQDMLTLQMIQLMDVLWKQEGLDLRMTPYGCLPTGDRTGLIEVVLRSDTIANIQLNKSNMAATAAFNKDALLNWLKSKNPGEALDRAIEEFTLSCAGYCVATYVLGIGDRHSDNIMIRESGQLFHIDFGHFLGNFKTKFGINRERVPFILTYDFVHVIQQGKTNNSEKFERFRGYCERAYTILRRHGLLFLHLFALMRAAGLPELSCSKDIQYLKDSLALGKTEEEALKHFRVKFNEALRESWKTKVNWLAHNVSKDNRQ
Chain of p110δ/p85α (P27986 whole entry partner): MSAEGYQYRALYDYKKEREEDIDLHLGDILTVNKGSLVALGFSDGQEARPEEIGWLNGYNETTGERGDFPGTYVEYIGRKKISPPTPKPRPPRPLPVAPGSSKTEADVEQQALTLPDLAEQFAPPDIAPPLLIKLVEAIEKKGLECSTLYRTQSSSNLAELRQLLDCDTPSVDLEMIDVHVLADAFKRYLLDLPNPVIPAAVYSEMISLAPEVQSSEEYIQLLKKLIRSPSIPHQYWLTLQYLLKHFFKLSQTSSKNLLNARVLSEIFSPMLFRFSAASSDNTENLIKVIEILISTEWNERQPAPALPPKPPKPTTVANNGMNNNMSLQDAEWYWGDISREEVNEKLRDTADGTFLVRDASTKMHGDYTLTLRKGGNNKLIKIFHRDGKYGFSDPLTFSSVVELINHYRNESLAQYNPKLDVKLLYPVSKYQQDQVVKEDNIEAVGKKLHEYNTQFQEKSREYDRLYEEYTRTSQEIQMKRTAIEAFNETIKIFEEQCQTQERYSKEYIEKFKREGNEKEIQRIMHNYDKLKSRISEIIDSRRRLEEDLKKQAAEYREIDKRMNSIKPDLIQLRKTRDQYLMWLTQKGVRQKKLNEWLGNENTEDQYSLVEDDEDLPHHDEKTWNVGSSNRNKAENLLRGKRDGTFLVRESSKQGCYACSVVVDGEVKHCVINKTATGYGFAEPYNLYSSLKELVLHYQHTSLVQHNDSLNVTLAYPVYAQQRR

Chain of p110γ (P48736 whole entry, canonical isoform): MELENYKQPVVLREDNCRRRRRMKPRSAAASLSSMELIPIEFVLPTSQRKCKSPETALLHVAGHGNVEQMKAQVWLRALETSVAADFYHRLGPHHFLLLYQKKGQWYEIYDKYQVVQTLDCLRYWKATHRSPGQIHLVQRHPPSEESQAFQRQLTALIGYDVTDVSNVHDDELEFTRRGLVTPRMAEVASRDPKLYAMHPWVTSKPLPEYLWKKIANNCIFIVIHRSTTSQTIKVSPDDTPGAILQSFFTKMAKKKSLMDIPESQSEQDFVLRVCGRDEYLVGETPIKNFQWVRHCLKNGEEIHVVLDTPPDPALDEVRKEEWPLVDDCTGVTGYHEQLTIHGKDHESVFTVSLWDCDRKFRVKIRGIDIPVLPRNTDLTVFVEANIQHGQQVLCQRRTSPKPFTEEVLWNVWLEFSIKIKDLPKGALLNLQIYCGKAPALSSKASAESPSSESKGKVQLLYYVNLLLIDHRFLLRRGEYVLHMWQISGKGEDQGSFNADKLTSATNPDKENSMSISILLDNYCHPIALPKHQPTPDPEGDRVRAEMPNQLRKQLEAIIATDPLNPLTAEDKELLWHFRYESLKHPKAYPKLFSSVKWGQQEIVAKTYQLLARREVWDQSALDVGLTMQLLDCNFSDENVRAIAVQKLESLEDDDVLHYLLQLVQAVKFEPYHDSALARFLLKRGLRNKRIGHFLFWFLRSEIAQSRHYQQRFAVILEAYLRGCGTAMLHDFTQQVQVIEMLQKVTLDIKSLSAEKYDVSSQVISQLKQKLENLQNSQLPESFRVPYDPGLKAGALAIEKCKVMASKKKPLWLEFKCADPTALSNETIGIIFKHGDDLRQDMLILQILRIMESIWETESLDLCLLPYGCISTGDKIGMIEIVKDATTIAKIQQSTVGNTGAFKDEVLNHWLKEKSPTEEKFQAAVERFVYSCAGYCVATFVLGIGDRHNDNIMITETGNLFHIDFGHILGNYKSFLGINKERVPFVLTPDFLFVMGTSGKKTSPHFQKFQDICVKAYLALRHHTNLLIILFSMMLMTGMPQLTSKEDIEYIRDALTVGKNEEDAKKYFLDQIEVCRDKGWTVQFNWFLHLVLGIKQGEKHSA
Chain of p110β/p85α (P42338 whole entry): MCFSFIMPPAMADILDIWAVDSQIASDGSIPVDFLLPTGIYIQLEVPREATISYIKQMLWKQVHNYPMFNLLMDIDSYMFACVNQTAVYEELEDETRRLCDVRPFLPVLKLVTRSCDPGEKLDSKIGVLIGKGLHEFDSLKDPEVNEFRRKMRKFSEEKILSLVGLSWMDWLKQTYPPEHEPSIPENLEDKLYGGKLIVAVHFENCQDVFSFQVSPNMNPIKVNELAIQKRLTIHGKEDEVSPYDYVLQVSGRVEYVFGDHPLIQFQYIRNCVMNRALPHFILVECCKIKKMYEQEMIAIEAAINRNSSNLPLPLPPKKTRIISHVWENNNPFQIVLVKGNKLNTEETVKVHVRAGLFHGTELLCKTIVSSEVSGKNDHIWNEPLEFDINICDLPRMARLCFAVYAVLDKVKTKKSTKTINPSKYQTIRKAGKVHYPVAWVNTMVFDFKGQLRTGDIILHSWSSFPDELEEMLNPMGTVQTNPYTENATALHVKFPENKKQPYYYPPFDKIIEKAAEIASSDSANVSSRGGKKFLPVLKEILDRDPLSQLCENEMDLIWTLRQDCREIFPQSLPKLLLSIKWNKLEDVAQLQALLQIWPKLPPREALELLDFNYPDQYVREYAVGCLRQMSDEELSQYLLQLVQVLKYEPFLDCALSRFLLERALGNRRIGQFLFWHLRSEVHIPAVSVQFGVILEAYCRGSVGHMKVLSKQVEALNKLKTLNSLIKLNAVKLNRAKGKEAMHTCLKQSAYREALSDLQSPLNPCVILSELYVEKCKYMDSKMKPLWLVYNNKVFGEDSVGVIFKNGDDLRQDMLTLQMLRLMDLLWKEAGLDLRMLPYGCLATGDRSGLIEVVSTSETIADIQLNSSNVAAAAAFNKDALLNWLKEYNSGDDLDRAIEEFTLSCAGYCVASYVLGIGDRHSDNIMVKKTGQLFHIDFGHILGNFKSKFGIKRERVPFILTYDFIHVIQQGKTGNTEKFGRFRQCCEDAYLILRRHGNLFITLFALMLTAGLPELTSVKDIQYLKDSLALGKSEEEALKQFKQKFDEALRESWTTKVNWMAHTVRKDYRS
Chain of p110β/p85α (P27986 2-724 partner): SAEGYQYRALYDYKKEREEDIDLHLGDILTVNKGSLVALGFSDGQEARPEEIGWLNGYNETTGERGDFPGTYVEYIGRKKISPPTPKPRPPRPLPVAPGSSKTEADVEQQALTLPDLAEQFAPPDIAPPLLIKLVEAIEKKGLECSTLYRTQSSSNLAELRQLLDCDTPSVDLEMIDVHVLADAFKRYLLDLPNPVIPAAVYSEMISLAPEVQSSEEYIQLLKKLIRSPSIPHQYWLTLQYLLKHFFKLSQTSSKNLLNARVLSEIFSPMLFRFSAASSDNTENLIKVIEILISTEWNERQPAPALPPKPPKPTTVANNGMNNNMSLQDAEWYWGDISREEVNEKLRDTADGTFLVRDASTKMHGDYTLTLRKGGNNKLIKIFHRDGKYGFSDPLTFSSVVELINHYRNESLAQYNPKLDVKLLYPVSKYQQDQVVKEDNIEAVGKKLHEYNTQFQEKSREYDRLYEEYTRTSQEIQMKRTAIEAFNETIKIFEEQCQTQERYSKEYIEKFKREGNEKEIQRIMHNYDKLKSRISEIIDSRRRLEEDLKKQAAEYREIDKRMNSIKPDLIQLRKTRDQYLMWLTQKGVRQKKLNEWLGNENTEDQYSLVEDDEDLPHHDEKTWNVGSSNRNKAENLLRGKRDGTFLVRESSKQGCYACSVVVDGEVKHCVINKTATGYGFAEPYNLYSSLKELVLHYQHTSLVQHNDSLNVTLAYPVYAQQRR

Regarding `CCc1ccn2nc([C@@H]3CCN3c3ncnc4[nH]cc(C#N)c34)n(-c3ccccc3)c(=O)c12` [Compound 133, (S)-4-(2-(5-ethyl-4-oxo-3-phenyl-3,4-dihydropyrrolo[2,1-f][1,2,4]triazin-2-yl)azetidin-1-yl)-7H-pyrrolo[2,3-d]pyrimidine-5-carbonitrile], on p110β/p85α, the “PI3Kβ IH % @ 1 uM” value was 11.5%. The “PI3Kγ IH % @ 1 uM” value at p110γ came to 65.9%. Moreover, at p110δ/p85α, the “PI3Kδ IH % @ 1 uM” value was 88.1% and the 50% inhibitory concentration (IC50) is 172 nM.
`Nc1nc(N2CCC[C@H]2c2nn3ccc(Cl)c3c(=O)n2-c2ccccc2)n2nccc2n1` [Compound 134, (S)-2-(1-(2-aminopyrazolo[1,5-a][1,3,5]triazin-4-yl)pyrrolidin-2-yl)-5-chloro-3-phenylpyrrolo[2,1-f][1,2,4]triazin-4(3H)-one]: the “PI3Kβ IH % @ 1 uM” value on p110β/p85α was 59.2%. Also, at p110γ, the “PI3Kγ IH % @ 1 uM” value is reported as over 100% and the IC50 was found to be 30 nM. For the same molecule, at p110δ/p85α, the “PI3Kδ IH % @ 1 uM” value is listed as over 100% and the IC50 was found to be 5 nM.
`Nc1nc(N2CC[C@H]2c2nn3ccc(Br)c3c(=O)n2-c2ccccc2)n2nccc2n1` [Compound 135]: the “PI3Kβ IH % @ 1 uM” value at p110β/p85α is listed as 20.6%. For the same molecule, at p110γ, the “PI3Kγ IH % @ 1 uM” value is over 100% and the IC50 came out at 12 nM. For the same molecule, at p110δ/p85α, the “PI3Kδ IH % @ 1 uM” value turned out to be 74.5% and the IC50 stood at 51 nM.
Taken in the same sequence, the figures for `Nc1nc(N2CC(F)(F)C[C@H]2c2nn3ccc(Cl)c3c(=O)n2-c2ccccc2)n2nccc2n1` [Compound 136] were 27.6%, 95.0%, 42 nM, 83.5% and 124 nM.
As to `Nc1nc(N2CC[C@H]2c2nn3ccc(Cl)c3c(=O)n2-c2ccccc2)n2nccc2n1` [Compound 137], the “PI3Kβ IH % @ 1 uM” value at p110β/p85α is recorded as 35.9%. In addition, on p110γ, the “PI3Kγ IH % @ 1 uM” value was 89.3% and the IC50 worked out at 13 nM. Also, at p110δ/p85α, the “PI3Kδ IH % @ 1 uM” value came to 96.8% and the IC50 is 36 nM.
The like results for `Nc1ncnc(N2CCC[C@H]2c2nn3ccc(Cl)c3c(=O)n2-c2ccccc2)n1` [Compound 138, (S)-2-(1-(4-amino-1,3,5-triazin-2-yl)pyrrolidin-2-yl)-5-chloro-3-phenylpyrrolo[2,1-f][1,2,4]triazin-4(3H)-one] were, in that order, 42.3%, 95.0%, 75 nM, over 100% and 12 nM.
For `NC(=O)c1ccn2nc([C@@H]3CCCN3c3ncnc4[nH]cnc34)n(-c3ccccc3)c(=O)c12` [Compound 139, (S)-2-(1-(9H-purin-6-yl)pyrrolidin-2-yl)-4-oxo-3-phenyl-3,4-dihydropyrrolo[2,1-f][1,2,4]triazine-5-carboxamide], the “PI3Kβ IH % @ 1 uM” value at p110β/p85α is 18.0%. Moreover, at p110γ, the “PI3Kγ IH % @ 1 uM” value was 46.5%. Besides, on p110δ/p85α, the “PI3Kδ IH % @ 1 uM” value came to 64.8%.
With `N#Cc1c[nH]c2ncnc(N3CCC[C@H]3c3nn4ccc(C(N)=O)c4c(=O)n3-c3ccccc3)c12` [Compound 140], at p110β/p85α, the “PI3Kβ IH % @ 1 uM” value is 15.0%. Further, at p110γ, the “PI3Kγ IH % @ 1 uM” value is reported as 82.3% and the IC50 was found to be 116 nM. Besides, at p110δ/p85α, the “PI3Kδ IH % @ 1 uM” value is on record as over 100% and the IC50 worked out at 51 nM.
Taken in the same sequence, the figures for `N#Cc1c(N)ncnc1N1CC(F)(F)C[C@H]1c1nn2ccc(Cl)c2c(=O)n1-c1ccccc1` [Compound 141] were 28.2%, 92.3%, 151 nM, over 100% and 5 nM.
For the molecule `O=c1c2c(Cl)ccn2nc([C@@H]2CCN2c2ncnc3[nH]ccc23)n1-c1ccccc1` [Compound 142], the “PI3Kβ IH % @ 1 uM” value at p110β/p85α stood at 13.5%. Further, at p110γ, the “PI3Kγ IH % @ 1 uM” value is 75.5% and the IC50 was 390 nM. On p110δ/p85α, the “PI3Kδ IH % @ 1 uM” value is 81.1% and the IC50 came out at 298 nM.
`CS(=O)(=O)c1c[nH]c2ncnc(N3CC[C@H]3c3nn4ccc(Cl)c4c(=O)n3-c3ccccc3)c12` [Compound 143]: the “PI3Kβ IH % @ 1 uM” value on p110β/p85α stood at 63.0%. On p110γ, the “PI3Kγ IH % @ 1 uM” value is on record as 82.3% and the IC50 turned out to be 95 nM. For the same molecule, on p110δ/p85α, the “PI3Kδ IH % @ 1 uM” value came to 88.8% and the half-inhibitory concentration (IC50) is 70 nM.
As for `CS(=O)(=O)c1c[nH]c2ncnc(N3CCC[C@H]3c3nn4ccc(Cl)c4c(=O)n3-c3ccccc3)c12` [Compound 144], the “PI3Kβ IH % @ 1 uM” value on p110β/p85α was determined as 62.5%. Also, at p110γ, the “PI3Kγ IH % @ 1 uM” value is 94.1% and the IC50 came out at 44 nM. In addition, at p110δ/p85α, the “PI3Kδ IH % @ 1 uM” value is over 100% and the IC50 amounted to 5 nM.
Consider `O=c1c2c(Cl)ccn2nc([C@@H]2CCCN2c2ncnc3[nH]ccc23)n1-c1ccccc1` [Compound 145], for which the “PI3Kβ IH % @ 1 uM” value at p110β/p85α is on record as 55.5%. For the same molecule, at p110γ, the “PI3Kγ IH % @ 1 uM” value is given as over 100% and the IC50 came to 9 nM. In addition, on p110δ/p85α, the “PI3Kδ IH % @ 1 uM” value is given as over 100% and the IC50 is 2 nM.
In the case of `O=c1c2c(Cl)ccn2nc([C@@H]2CCCN2c2nc(F)nc3[nH]cnc23)n1-c1ccccc1` [Compound 146], on p110β/p85α, the “PI3Kβ IH % @ 1 uM” value is on record as 77.9% and the half-maximal inhibitory concentration (IC50) was 120 nM. At p110γ, the “PI3Kγ IH % @ 1 uM” value is given as 97.3% and the IC50 was 9 nM. In addition, at p110δ/p85α, the “PI3Kδ IH % @ 1 uM” value is over 100% and the IC50 worked out at 1 nM.
With `O=c1c2c(Cl)ccn2nc([C@@H]2CCCN2c2ncnc3[nH]cc(F)c23)n1-c1ccccc1` [Compound 147], the “PI3Kβ IH % @ 1 uM” value at p110β/p85α stood at 65.3%. Besides, on p110γ, the “PI3Kγ IH % @ 1 uM” value came to 94.3% and the IC50 was 4 nM. Besides, at p110δ/p85α, the “PI3Kδ IH % @ 1 uM” value is over 100% and the IC50 came to 1 nM.
Taken in the same sequence, the figures for `O=c1c2c(Cl)ccn2nc([C@@H]2CCN2c2ncnc3[nH]cc(F)c23)n1-c1ccccc1` [Compound 148] were 19.5%, 83.0%, 173 nM, 86.7% and 44 nM.
On to `COCc1ccn2nc([C@@H]3CCCN3c3ncnc4[nH]cnc34)n(-c3ccccc3)c(=O)c12` [Compound 149], for which, on p110β/p85α, the “PI3Kβ IH % @ 1 uM” value is listed as −35.9%. Besides, on p110γ, the “PI3Kγ IH % @ 1 uM” value came to 74.2% and the IC50 was 348 nM. Moreover, at p110δ/p85α, the “PI3Kδ IH % @ 1 uM” value was 95.9% and the IC50 was 52 nM.
Taken in the same sequence, the figures for `COCc1ccn2nc([C@@H]3CCCN3c3ncnc4[nH]cc(C#N)c34)n(-c3ccccc3)c(=O)c12` [Compound 150] were 31.5%, 92.6%, 92 nM, over 100% and 3 nM.
In the case of `COCc1ccn2nc([C@@H]3CCCN3c3nc(N)ncc3C(F)(F)F)n(-c3ccccc3)c(=O)c12` [Compound 151], the “PI3Kβ IH % @ 1 uM” value on p110β/p85α is 11.4%. Besides, the “PI3Kγ IH % @ 1 uM” value at p110γ was determined as 22.8%. In addition, the “PI3Kδ IH % @ 1 uM” value at p110δ/p85α is 52.4%.
Regarding `N#Cc1c[nH]c2ncnc(N3CCOCC3c3nn4ccc(Cl)c4c(=O)n3-c3ccccc3)c12` (centres unmarked) [Compound 152], the “PI3Kβ IH % @ 1 uM” value on p110β/p85α was 54.4%. Also, at p110γ, the “PI3Kγ IH % @ 1 uM” value was 79.3% and the IC50 is 287 nM. On p110δ/p85α, the “PI3Kδ IH % @ 1 uM” value amounted to 99.2% and the IC50 stood at 5 nM.
`O=c1c2c(Cl)ccn2nc([C@@H]2COCCN2c2ncnc3[nH]cnc23)n1-c1ccccc1` [Compound 153]: the “PI3Kβ IH % @ 1 uM” value at p110β/p85α was determined as 56.5%. At p110γ, the “PI3Kγ IH % @ 1 uM” value stood at 85.8%. For the same molecule, the “PI3Kδ IH % @ 1 uM” value on p110δ/p85α is reported as over 100%.
With `CC(Nc1nc(N)ncc1C(F)(F)F)c1cc2ncc(Cl)n2c(=O)n1-c1ccccc1` (centres unmarked) [Compound 154], the “PI3Kβ IH % @ 1 uM” value on p110β/p85α is 56.7%. In addition, on p110γ, the “PI3Kγ IH % @ 1 uM” value is reported as 93.7% and the IC50 came out at 40 nM. Besides, at p110δ/p85α, the “PI3Kδ IH % @ 1 uM” value worked out at 97.6% and the IC50 is 3 nM.
Regarding `N#Cc1c[nH]c2ncnc(N3CCC[C@H]3c3nn4ccc(Cl)c4c(=O)n3Cc3ncccn3)c12` [Compound 155], the “PI3Kβ IH % @ 1 uM” value on p110β/p85α stood at 56.0%. On p110γ, the “PI3Kγ IH % @ 1 uM” value is reported as 94.9% and the IC50 came to 133 nM. Further, on p110δ/p85α, the “PI3Kδ IH % @ 1 uM” value amounted to 96.4% and the half-inhibitory concentration (IC50) came out at 23 nM.
With `O=c1c2c(Cl)ccn2nc([C@@H]2CCCN2c2ncnc3[nH]cnc23)n1Cc1ncccn1` [Compound 156], the “PI3Kβ IH % @ 1 uM” value at p110β/p85α worked out at 42.2%. Also, the “PI3Kγ IH % @ 1 uM” value on p110γ amounted to 64.0%. In addition, on p110δ/p85α, the “PI3Kδ IH % @ 1 uM” value is 83.4% and the concentration for half-maximal inhibition (IC50) was determined as 169 nM.
As to `O=c1c2c(Cl)ccn2nc([C@@H]2C[C@H](F)CN2c2ncnc3[nH]cnc23)n1Cc1ccccn1` [Compound 157], at p110β/p85α, the “PI3Kβ IH % @ 1 uM” value came out at 39.5%. On p110γ, the “PI3Kγ IH % @ 1 uM” value is 79.9% and the IC50 is 280 nM. Besides, at p110δ/p85α, the “PI3Kδ IH % @ 1 uM” value is given as over 100% and the half-maximal inhibitory concentration (IC50) came to 21 nM.
For the molecule `N#Cc1c[nH]c2ncnc(N3C[C@@H](F)C[C@H]3c3nn4ccc(Cl)c4c(=O)n3Cc3ccccn3)c12` [Compound 158], on p110β/p85α, the “PI3Kβ IH % @ 1 uM” value was 71.1% and the IC50 turned out to be 473 nM. For the same molecule, at p110γ, the “PI3Kγ IH % @ 1 uM” value was over 100% and the IC50 turned out to be 46 nM. Further, at p110δ/p85α, the “PI3Kδ IH % @ 1 uM” value is listed as over 100% and the IC50 was determined as 6 nM.
Turning to `N#Cc1c[nH]c2ncnc(N3CC(F)(F)C[C@H]3c3nn4ccc(Cl)c4c(=O)n3Cc3ccccn3)c12` [Compound 160], the “PI3Kβ IH % @ 1 uM” value on p110β/p85α came to 11.4%. In addition, the “PI3Kγ IH % @ 1 uM” value at p110γ came to 34.3%. Further, at p110δ/p85α, the “PI3Kδ IH % @ 1 uM” value is given as 80.2% and the IC50 is 140 nM.
